# Earlier results in patent US11304902B2, “Pharmaceutical compositions, preparation and uses thereof” (CURADIGM SAS, priority 2014, dated 2022).
# Test system: CYP1A
# Settings: human CYP enzyme
smiles,measurement,value
"COc1ccc(-c2cc(=O)c3c(O)cc(O)cc3o2)cc1 [Acacetin, acacetin]",role towards CYP1A (substrate / inhibitor / inducer),Inhibitor
